Results on 71 compounds are retold here after PubChem BioAssay AID488890 (Southern Research Specialized Biocontainment Screening …, 2010).

In general, pIC50 refers to the negative decadic logarithm of the IC50, by convention in mol/L. Usually IC50 stands for the point on the concentration scale where inhibition reaches its midpoint.

pIC50: −log10 of the molar value. Inconclusive results are not listed. The source made the active and inactive calls. The rule behind the calls is not given here.

For the test, the system named is Mycobacterium tuberculosis non-replicating, growth inhibition. Briefly: growth inhibition of non-replicating M. tuberculosis (AID 488890).
For `Cc1cc(NCc2ccccn2)n2nc(C)c(-c3ccc(Cl)cc3)c2n1`, the pIC50 was 5.73. Regarding `O=C(Nc1ccccn1)c1ccc(C(=O)c2ccccc2)cc1`, the IC50 was 18.4 µM (inactive). With `Cc1nn(C)cc1/C=N/NC(=O)c1sc2ccccc2c1Cl`, the IC50 is 27.8 µM (inactive).

For `Cc1ccc(NC(=O)C2CC2c2ccccc2)cc1` (stereo unspecified), the IC50 is 15 µM (inactive).

Regarding `O=C(NC(=S)N1CCc2ccccc21)c1ccccc1`, the IC50 is 11.6 µM (inactive). For `O=C(Nc1ccc2c(c1)CCC2)c1ccc(Br)o1`, the pIC50 is 5.10. As for `Cc1cc(NC(=O)c2cc([N+](=O)[O-])cc([N+](=O)[O-])c2)no1`, the IC50 was 17.3 µM (inactive). In the case of `Cc1onc(-c2ccccc2)c1C(=O)O/N=C(\N)c1ccc([N+](=O)[O-])o1`, the IC50 was 25.8 µM (inactive). Turning to `COc1ccc(C)c2sc(NC(=O)CCS(=O)(=O)c3ccccc3)nc12`, the pIC50 is 5.22. The same measure, in the same setting: to `Cc1nc([N+](=O)[O-])c(Br)n1CC(=O)c1ccc2ccccc2c1` belongs 5.12. For `COc1ccccc1-c1cc(SC)c(C#N)c(=O)o1`, the IC50 is 14.2 µM (inactive). Still for that read-out and setting: to `CC(C)(C)c1ccc(-c2nc(C#N)c(NCCCn3ccnc3)o2)cc1` belongs 38.2 µM (inactive); to `COc1cccc(CNCCc2c[nH]c3ccccc23)c1OCc1ccc(F)cc1`, 16.9 µM (inactive); to `O=C(Nc1nnc(-c2ccco2)o1)c1cccc2ccccc12`, 19.1 µM (inactive). As to `O=C(CCc1c[nH]c2ccccc12)Nc1ncccc1O`, the IC50 is 15.1 µM (inactive). On to `NC(N)=N/N=C/c1cc([N+](=O)[O-])ccc1O`, for which the pIC50 was 5.37. Same read-out and setting: to `CCC1CCc2sc(C(=O)NCC3CCCO3)cc2C1` (stereo unspecified) belongs 5.84. `CCOC(=O)COc1ccc2c3c(c(=O)oc2c1C)CCC3`: the IC50 was 14 µM (inactive). As to `COc1ccc(N2C(=O)C(F)(F)C2c2cccc(F)c2)cc1` (stereo unspecified), the pIC50 was 5.67. Regarding `O=C(CCCSc1nc2ccccc2s1)NCc1ccco1`, the IC50 was 10.7 µM (inactive). Still for that read-out and setting: to `CCCCOC(=O)c1ccc(NC(=O)C2CCCO2)cc1` (stereo unspecified) belongs 10 µM (inactive). Take `CSC1=N/C(=C\c2ccc3c(c2)OCO3)C(=O)S1`: the negative-log IC50 (pIC50) is 5.31. Turning to `Cn1nnnc1N=N/C(=N/Nc1ccccc1)c1ccccc1`, the pIC50 was 5.19. The same measure, in the same setting: to `COc1ccc(NC(=O)C(=O)NNC(=O)C(C)Oc2ccc(Cl)cc2Cl)cc1` (stereo unspecified) belongs 5.82; to `COc1ccc(/C(C)=N/Nc2ncc(Cl)cc2Cl)c(O)c1`, 5.35. As to `COC(=O)c1ccc(COC(=O)CCS(=O)(=O)c2ccc(C)cc2)cc1`, the IC50 was 19 µM (inactive). Consider `COc1ccc(C(=O)NN/C(C)=C/C(=O)c2ccccc2)cc1`, for which the negative-log IC50 (pIC50) was 5.87. For the compound `Cc1cccc(Nc2nc(-c3ccccn3)cs2)n1`, the pIC50 was 6.02. With `O=C(Nc1nnc(C2=COCCO2)o1)c1ccc(Cc2ccccc2)cc1`, the IC50 is 30.6 µM (inactive). `O=Cc1ccc(-c2ccc(Cl)cc2Cl)[nH]1`: the IC50 was 17.3 µM (inactive).

In the case of `O=S(=O)(CCN1CCN(c2ccccn2)CC1)c1ccc(Cl)cc1Cl`, the pIC50 is 5.06. Still for that read-out and setting: next, `CCc1ccc(OCC(=O)Nc2ccncc2)c(Br)c1`: 5.20; `Clc1ccc(-c2ccc(CNCc3ccccn3)o2)cc1`: 6.11. With `Cc1cc(N2CCC(C)CC2)nc(NCc2ccccc2)n1`, the IC50 is 16.4 µM (inactive). Turning to `COC(=O)COc1cccc(NC(=O)COc2ccccc2)c1`, the negative-log IC50 (pIC50) was 5.11. Still for that read-out and setting: to `CCCCN1CCC(O)(c2ccccc2)C(C(=O)c2ccccc2)C1` (stereo unspecified) belongs 5.31. Consider `COc1cc(CNC(C)(C)CO)cc(Br)c1OCc1ccc(Cl)cc1Cl`, for which the IC50 was 10 µM (inactive). `O=C(N/N=C/C=C/c1ccccc1)c1ccccn1`: the pIC50 was 5.10.

Take `Cc1nc2ccccc2n1/N=C/c1ccc([N+](=O)[O-])s1`: the negative-log IC50 (pIC50) was 6.49. Same read-out and setting: to `O=C(CCN1CCCCCC1)c1ccccc1` belongs 5.04. Same read-out and setting: next, `CCCCC1CCC(C(=O)Nc2ccc(S(=O)(=O)Nc3nccs3)cc2)CC1` (stereo unspecified): 5.11. Consider `Cc1ccccc1C(=O)NN1CC(C(=O)OCc2ccc(Cl)c(Cl)c2)CC1=O` (stereo unspecified), for which the IC50 was 14.1 µM (inactive).

`COc1cc(CNCCc2ccccc2)cc(Br)c1OCC(=O)Nc1ccccc1C`: the pIC50 is 5.07. In the case of `O=C(CCS(=O)(=O)c1ccccc1)Nc1nc(-c2ccccn2)cs1`, the IC50 is 11.1 µM (inactive). Regarding `CCN(CC)c1ccc(-c2sc(Nc3ccccc3)n[n+]2-c2ccc(F)cc2)cc1`, the pIC50 is 5.04. As to `CCOc1c(OC(C)=O)ccc(/C=C2\N=C(SCC)SC2=O)c1[N+](=O)[O-]`, the IC50 is 10.2 µM (inactive).

`Cc1cc(C)c2c(=O)n(CC(=O)Nc3cccc(Cl)c3C)sc2n1`: the pIC50 is 5.14.

Regarding `COc1cc(C(=O)N/N=C/c2cc([N+](=O)[O-])cs2)cc(OC)c1OC`, the pIC50 was 5.45. With `O=C(CCNc1cccc(Cl)c1)c1ccco1`, the pIC50 was 5.27. As for `Brc1ccc(OCCCCN2CCCCC2)cc1`, the IC50 is 41.7 µM (inactive). As for `O=[N+]([O-])c1ccc(CN2CCN(c3ccccc3)CC2)o1`, the pIC50 is 6.19. Same read-out and setting: to `CC(C)c1ccc2[nH]c3c(c2c1)CCC/C3=N\NC(=O)c1ccncc1` belongs 5.06; to `O=c1c2cc(Cl)ccc2oc2nc3n(c(=O)c12)CCCS3`, 5.52; to `Cc1cc(NC(=O)c2ccccc2F)n(-c2nc3ccccc3[nH]2)n1`, 5.12. `C=C1CCC[C@]2(C)C[C@H]3OC(=O)C(CNC(C)CCCC(C)C)[C@H]3CC12` (stereo partly specified): the IC50 is 15.3 µM (inactive). Consider `Cc1cc(C(=O)N/N=C/c2ccc([N+](=O)[O-])o2)c(C)o1`, for which the pIC50 is 5.26. For `OC(CNCC(c1ccc(Cl)cc1Cl)c1c[nH]c2ccccc12)c1ccccc1` (stereo unspecified), the IC50 is 10.9 µM (inactive). For the compound `c1ccc(-c2ccccc2OCCCCn2ccnc2)cc1`, the IC50 was 33.5 µM (inactive). Still for that read-out and setting: next, `O=C1CC(=O)CC(c2ccccc2)C1`: 29.8 µM (inactive). In the case of `CC(NC(=O)COc1ccccc1F)C1CC2CCC1C2` (stereo unspecified), the pIC50 was 6.38.

Regarding `COc1cc(/C=N/NC(=O)c2ccccn2)ccc1OC(=O)c1cccs1`, the pIC50 was 5.55. On the same count and under the same terms, next, `C/C(=N\NC(=O)c1ccccc1O)C1C(=O)c2ccccc2C1=O`: 6.19.

In the case of `Cc1ccccc1C1=N/C(=C/c2cccnc2)C(=O)O1`, the IC50 was 19.9 µM (inactive). Consider `CC1C/C(=N/NC(=O)c2cccc(F)c2)c2ccc(O)cc2C1` (stereo unspecified), for which the IC50 was 14 µM (inactive).

As for `Cc1nc2c(=O)n(C)c(=O)n(C)c2nc1Cl`, the IC50 is 10.3 µM (inactive). Still for that read-out and setting: next, `COc1cc(/C=N/Nc2ccc(Cl)c(C(=O)O)c2)ccc1OC(=O)c1ccco1`: 11.9 µM (inactive). For the compound `CC(=O)Nc1cccc(-c2nc3ccccc3c(=O)o2)c1`, the negative logarithm of the IC50 (pIC50) was 5.11. For `C/C(=N/Nc1ccnc2cc(Cl)ccc12)c1ccc(N)cc1`, the IC50 was 21.6 µM (inactive).

With `O=C(NNC1=Nc2ccccc2SC1)c1ccc(F)cc1`, the IC50 is 17.3 µM (inactive).

Consider `O=C(N/N=C/c1ccc[nH]1)c1ccc(Cl)cc1`, for which the pIC50 is 5.41.

With `COc1cccc2sc(N3CCN(C(=O)c4ccc([N+](=O)[O-])o4)CC3)nc12`, the pIC50 was more than 7.00.
